Data on three compounds can be found in patent US9254288B2, “Susceptibility of tumors to tyrosine kinase inhibitors and treatment thereof” (THE TRANSLATIONAL GENOMICS RESEARCH INSTITUTE, priority 2012, dated 2016).

The structures appear in SMILES notation. Bounds are passed on as bounds.

Assay [1] concerns BaF3/FGFR2b N550K. The assay is described as follows: BaF3 cell viability (ViaLight), FGFR2b N550K. The assay is classed as cell-based, murine. The following applies: for activity against or resistance of N550K, cell viability: BaF3 N550K.
For assay [2], the system named is BaF3 FGFR2 K660E. As to the kind of experiment: BaF3 cell viability, FGFR2 K660E.
Description: (§1) pEF1a.FGFR2b.IRES.neo or the various FGFR2b mutant plasmids were introduced into BaF3 cells using the Amaxa nucleofector kit V, according to the manufacturer's instructions (Amaxa, Walkersville, Md.). Cells were selected in growth media containing 1200 μg/ml G418 and 5 ng/ml IL3 for 14 days and frozen down.
(§2) After 72 hours, cell viability was measured using the ViaLight kit (Lonza, Walkersville, Md.). Values were normalized to DMSO vehicle control wells and IC50 values generated by nonlinear regression analysis with variable slope using Prism software version 4.0c (GraphPad Software, San Diego, Calif.). […] Following 72 hours of drug treatment, cell viability was assessed using the CyQUANT Cell Proliferation Assay Kit (Life Technologies, Carlsbad, Calif.). Values were normalized to DMSO vehicle control wells and IC50 values calculated as described above. Proliferation assays were performed in triplicate on two independent days and the results averaged.
The subject of assay [3] is stable BaF3-FGFR2 cells, dovitinib-resistant FGFR2 mutants. As to the kind of experiment: BaF3 cell viability, panel of dovitinib-resistant FGFR2 mutations. Particulars: FGF10-induced proliferation.
Description: as §1, §2
Assay [4] has as its system BaF3/FGFR2b wildtype. As to the kind of experiment: BaF3 cell viability (ViaLight), wild-type FGFR2b. The assay is classed as cell-based, murine. The following applies: Mus musculus, BaF3, 72 h, read-out: IC50 value in BaF3/FGFR2b wildtype.
For assay [5], the system named is BaF3 FGFR2 V565I. As to the kind of experiment: BaF3 cell viability, FGFR2b V565I gatekeeper mutant. It is filed as cell-based, murine.
Assay [6] deals with BaF3 cells expressing the E719G mutant FGFR2. The assay is described as follows: BaF3 cell viability, FGFR2b E719G. It is filed as cell-based, murine. The following applies: E719G alone vs wild-type FGFR2.
Assay [7] relates to EI. As to the kind of experiment: Endometrial cancer cell viability, EI. The assay is classed as cell-based. Particulars: 72 h.
Assay [8] deals with EJ. The assay is described as follows: Endometrial cancer cell viability, EJ. It is filed as cell-based. Particulars: Homo sapiens, 72 h.
For assay [9], the system named is EN1078D. As to the kind of experiment: Endometrial cancer cell viability, EN1078D. It is filed as cell-based. The following applies: 72 h.
The subject of assay [10] is JHUEM-2 cells expressing FGFR2N550K. The assay is described as follows: JHUEM-2 cells stably expressing FGFR2N550K, cell viability. The assay is classed as cell-based. Particulars: JHUEM-2 FGFR2N550K vs control lines (FIG. 8A).
The subject of assay [11] is AN3CA. Particulars: cited from earlier work.
The test system of assay [12] is MFE296. The following applies: MFE296, carries N550K FGFR2 mutation; cited from earlier work.
Assay [13] has as its system MFE280. The following applies: MFE280, FGFR-mutant EC line; cited from earlier work.
The test system of assay [14] is endometrial cancer cell lines. As to the kind of experiment: Endometrial cancer cell line panel viability (CyQUANT). The following applies: FGFR2 mutant and wild-type endometrial cancer lines, 72 hours.
Description: as §2

Consider `CCN1CCN(c2ccc(Nc3cc(N(C)C(=O)Nc4c(Cl)c(OC)cc(OC)c4Cl)ncn3)cc2)CC1` [BGJ398], for which the “activity against or resistance of N550K, cell viability” value in assay [1] is recorded as “good activity”. The “activity against K660E activating mutation, cell viability” value in [2] was “good activity”. In [3], the “sensitivity or resistance of the FGFR2 mutation panel, cell viability” value (“sensitivity or resistance” for short) is “all FGFR2 kinase mutations except the V565I from the mutation panel are sensitive”.
As for `CNC(=O)c1cc(Oc2ccc(NC(=O)Nc3cc(C(C)(C)C)nn3-c3ccc4ncccc4c3)c(F)c2)ccn1` [DCC2036], the “sensitivity or resistance” value in assay [3] is on record as “most FGFR2 kinase mutations except N550K from this BaF3 resistance screen are sensitive”.
`CCN(CC)CCCCNc1ncc2cc(-c3cc(OC)cc(OC)c3)c(NC(=O)NC(C)(C)C)nc2n1` [PD173074]: the IC50 was 4.5 nM in [4]; 776 nM in assay [1] (Mus musculus, BaF3, 72 h, read-out: IC50 value in N550K resistance cells); more than 4000 nM in [7]; more than 4000 nM in assay [8]; more than 4000 nM in [9]. Moreover, the “fold difference in IC50, N550K versus wildtype” value in assay [1] (BaF3/FGFR2b N550K vs wildtype) is “over 170 fold”. In assay [1], the “activity against or resistance of N550K, cell viability” value is on record as “greatest resistance”. Moreover, the “activity against or resistance of V565I gatekeeper mutation, cell viability” value in [5] was “greatest resistance”. The “resistance conferred by E719G mutation” value in assay [6] is “did not induce resistance”. The “fold increase in the IC50” value in assay [10] is approximately 5 fold. Further, the “growth arrest and cell death” value in assay [11] (FGFR-mutant EC line) was “induced G1 growth arrest and cell death”; in [13], “induced G1 growth arrest and cell death”. Besides, the “sensitivity to FGFR inhibition” value in assay [11] (carries N550K FGFR2 mutation) and in assay [12] was “sensitive” each time. The “order of sensitivity across the cell line panel” value in assay [14] is “least sensitive”. Further, the “sensitivity or resistance” value in assay [3] is listed as “imparted resistance”.
